Usually EC50 stands for the concentration at which the effect is half-maximal.

Like-named read-outs stand apart in the source and are kept apart here.

The experiment has as its target T1, human DP2 (Homo sapiens, UniProt Q9Y5Y4).
T1 construct: expressed in transfected cells; membranes prepared
T1 sequence (Q9Y5Y4 1-395): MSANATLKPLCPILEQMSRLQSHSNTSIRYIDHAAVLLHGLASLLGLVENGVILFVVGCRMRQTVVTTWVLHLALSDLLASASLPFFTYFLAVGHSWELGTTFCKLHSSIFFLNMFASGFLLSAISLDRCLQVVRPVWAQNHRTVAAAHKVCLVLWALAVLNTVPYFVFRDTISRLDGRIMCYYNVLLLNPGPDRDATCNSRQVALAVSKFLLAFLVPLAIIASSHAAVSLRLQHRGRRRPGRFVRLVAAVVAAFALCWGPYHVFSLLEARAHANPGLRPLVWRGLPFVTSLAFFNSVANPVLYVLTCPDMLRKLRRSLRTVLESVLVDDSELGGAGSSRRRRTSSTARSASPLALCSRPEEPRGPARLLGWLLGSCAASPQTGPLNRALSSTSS
Nature of the experiment: DP-2 binding inhibition assay (3H-PGD2, membranes of DP2-expressing K562 cells). The procedure, abridged: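 Displacement of 3H-PGD2 was measured by filtration and scintillation counting after 60 min at room temperature, using membranes of DP2-transfected K562 cells in 0.1% BSA, 1% HSA or 4% HSA.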

Setting [1] is: 4% HSA, read-out: EC50 (nM) 4% HSA.

Take `COc1nc(C2CC2)ccc1CCNC(=O)c1ccc(Oc2cc3c(cc2Cl)C(C(=O)O)CCO3)cc1` (centres unmarked) [Example 184, Sodium 6-Chloro-7-(4-(2-(6-cyclopropyl-2-methoxypyridin-3-yl)ethylcarbamoyl)phenoxy)chroman-4-carboxylate]: under setting [1], the EC50 came out at 42.1 nM.
Turning to `N#Cc1cc2c(cc1Oc1ccc(C(=O)Nc3ccc(C(F)(F)F)nc3)cc1)OCCC2C(=O)O` (centres unmarked) [Example 6, 7-(4-((6-(Trifluoromethyl)pyridin-3-yl)carbamoyl)phenoxy)-6-cyanochroman-4-carboxylic acid], the concentration giving a half-maximal response (EC50) is, setting by setting: (0.1% BSA, read-out: EC50 (nM) 0.1% BSA) 16.9 nM; (1% HSA, read-out: EC50 (nM) 1% HSA) 524 nM.
`CC(C)(C)c1csc(NC(=O)c2ccc(Oc3cc4c(cc3Cl)C(C(=O)O)CCO4)cc2)n1` (centres unmarked) [Example 150, 7-(4-(4-tert-butylthiazol-2-ylcarbamoyl)phenoxy)-6-chlorochroman-4-carboxylic acid]: under setting [1], the EC50 was 32.7 nM.
On the same count and under the same terms, the result for `O=C(Nc1ccn(-c2ccc(F)cc2F)n1)c1ccc(Oc2cc3c(cc2Cl)C(C(=O)O)CCO3)cc1` (centres unmarked) [Example 168, 6-chloro-7-(4-(1-(2,4-difluorophenyl)-1H-pyrazol-3-ylcarbamoyl)phenoxy)chroman-4-carboxylic acid] reads 112 nM; that for `COc1ccc(-c2cccc(NC(=O)c3ccc(Oc4cc5c(cc4Cl)C(C(=O)O)CCO5)cc3)n2)cc1` (centres unmarked) [Example 58, 6-Chloro-7-(4-(6-(4-methoxyphenyl)pyridin-2-ylcarbamoyl)phenoxy)chroman-4-carboxylic acid], 67 nM; that for `O=C(NCCc1cccnc1N1CCCCC1)c1ccc(Oc2cc3c(cc2Cl)C(C(=O)O)CCO3)cc1` (centres unmarked) [Example 226, 6-chloro-7-(4-(2-(2-(piperidin-1-yl)pyridin-3-yl)ethylcarbamoyl)phenoxy) chroman-4-carboxylic acid], 1920 nM.
Same read-out and setting: the result for `O=C(Nc1ccc(-c2cccc(Cl)c2)nn1)c1ccc(Oc2cc3c(cc2Cl)C(C(=O)O)CCO3)cc1` (centres unmarked) [Example 97, 6-Chloro-7-(4-(6-(3-chlorophenyl)pyridazin-3-ylcarbamoyl)phenoxy)chroman-4-carboxylic acid] reads 203 nM.
Still for that read-out and setting: the result for `N#Cc1cc2c(cc1Oc1ccc(C(=O)Nc3ncc4cc(Cl)ccc4n3)cc1)OCCC2C(=O)O` (centres unmarked) [Example 8, 7-(4-(6-Chloroquinazolin-2-ylcarbamoyl)phenoxy)-6-cyanochroman-4-carboxylic acid] reads 695 nM; that for `CC(C)(C)c1cc(NC(=O)c2ccc(Oc3cc4c(cc3Cl)C(C(=O)O)CCO4)cc2)on1` (centres unmarked) [Example 162, 7-(4-(3-tert-butylisoxazol-5-ylcarbamoyl)phenoxy)-6-chlorochroman-4-carboxylic acid], 1600 nM.
Consider `O=C(Nc1cccc(-c2ccc(Cl)cc2)n1)c1ccc(Oc2c(Cl)cc3c(c2Cl)OCCC3C(=O)O)cc1` (centres unmarked) [Example 143, Sodium 6,8-dichloro-7-(4-(6-(4-chlorophenyl)pyridin-2-ylcarbamoyl)phenoxy)-chroman-4-carboxylate], for which the EC50 under setting [1] is 83.4 nM.
The same measure, in the same setting: the result for `CSc1ccc(-c2ccc(NC(=O)c3ccc(Oc4cc5c(cc4Cl)C(C(=O)O)CCO5)cc3)nn2)cc1` (centres unmarked) [Example 64, Sodium 6-chloro-7-(4-(6-(4-(methylthio)phenyl)pyridazin-3-ylcarbamoyl)phenoxy)chroman-4-carboxylate] reads 344 nM; that for `N#Cc1cc2c(cc1Oc1ccc(C(=O)Nc3nnc(-c4ccc(Cl)cc4)s3)cc1)OCCC2C(=O)O` (centres unmarked) [Example 204, 7-(4-(5-(4-chlorophenyl)-1,3,4-thiadiazol-2-ylcarbamoyl)phenoxy)-6-cyanochroman-4-carboxylic acid], 3440 nM; that for `O=C(Nc1nccc(-c2ccc(C(F)(F)F)cc2)n1)c1ccc(Oc2cc3c(cc2Cl)C(C(=O)O)CCO3)cc1` (centres unmarked) [Example 130, 6-Chloro-7-(4-(4-(4-(trifluoromethyl)phenyl)pyrimidin-2-ylcarbamoyl)phenoxy)chroman-4-carboxylic acid], 139 nM.

(Values after patent US8785445B2 (Array BioPharma Inc., priority 2008, dated 2014).)
